Structures are written as SMILES.

This experiment concerns the target SARS-CoV-2 Papain-Like Protease (PLpro) (Severe acute respiratory syndrome coronavirus 2 (2019-nCoV) (SARS-CoV-2), UniProt P0DTD1). The experiment can be described thus: biochemical. The settings on record: SARS-CoV-2 PLpro enzymatic fluorescence assay; read-out: PLpro IC50.
As usually defined, the IC50 is the concentration at which inhibition is half-maximal. As for `Cc1ccc(OCCN(C)C)cc1C(=O)NC1(c2cccc(C3=CCCCC3)c2)CC1` [Compound 338, 5-(2-(Dimethylamino)ethoxy)-2-methyl-N-(1-(2′,3′,4′,5′-tetrahydro-[1,1′-biphenyl]-3-yl)cyclopropyl)benzamide], the IC50 is 1000 to 5000 nM.

As for `Cc1ccc(OCCN(C)C)cc1C(=O)NC1(c2cccc(-c3ccccc3)c2C)CC1` [Compound 340, 5-(2-(Dimethylamino)ethoxy)-2-methyl-N-(1-(2-methyl-[1,1′-biphenyl]-3-yl)cyclopropyl)benzamide], the IC50 lay in the range of 100 to 1000 nM.

On to `Cc1ccc(OCC(N)C(C)(C)C)cc1C(=O)NC1(c2cccc3ccccc23)CC1` (centres unmarked) [Compound 343, 5-(2-Amino-3,3-dimethylbutoxy)-2-methyl-N-(1-(naphthalen-1-yl)cyclopropyl)benzamide], for which the IC50 is under 100 nM.

On to `Cc1ccc(OCCN(C)C)cc1C(=O)NC1(c2ccccc2C(C)C)CC1` [Compound 344, 5-(2-(Dimethylamino)ethoxy)-N-(1-(2-isopropylphenyl)cyclopropyl)-2-methylbenzamide], for which the half-inhibitory concentration (IC50) fell in the range of 100 to 1000 nM.

For `Cc1ccc(OCCN(C)C)cc1C(=O)NC1(c2cc(O)cc3ccccc23)CC1` [Compound 345, 5-(2-(Dimethylamino)ethoxy)-N-(1-(3-hydroxynaphthalen-1-yl)cyclopropyl)-2-methylbenzamide], the IC50 is under 100 nM.

As to `Cc1ccc(OCCN(C)C)cc1C(=O)NC1(c2csc3ccccc23)CC1` [Compound 346, N-(1-(Benzo[b]thiophen-3-yl)cyclopropyl)-5-(2-(dimethylamino)ethoxy)-2-methylbenzamide], the IC50 fell in the range of 100 to 1000 nM.

Turning to `CNCCOc1ccc(C)c(C(=O)NC2(c3cc(OC)cc4ccccc34)CC2)c1` [Compound 347, N-(1-(3-Methoxynaphthalen-1-yl)cyclopropyl)-2-methyl-5-(2-(methylamino)ethoxy)benzamide], the IC50 was under 100 nM.

For the molecule `COCCN1CCC1COc1ccc(C)c(C(=O)NC2(c3cccc4ccccc34)CC2)c1` (centres unmarked) [Compound 348, 5-((1-(2-Methoxyethyl)azetidin-2-yl)methoxy)-2-methyl-N-(1-(naphthalen-1-yl)cyclopropyl)benzamide], the concentration for half-maximal inhibition (IC50) was under 100 nM.

Turning to `CNCCOc1ccc(C)c(C(=O)N[C@@H](c2cccc3ccccc23)C(F)(F)F)c1` [Compound 349, (S)-2-Methyl-5-(2-(methylamino)ethoxy)-N-(2,2,2-trifluoro-1-(naphthalen-1-yl)ethyl)benzamide], the 50% inhibitory concentration (IC50) lay in the range of 100 to 1000 nM.

As to `Cc1cnc(OCCN(C)C)nc1C(=O)NC1(c2cccc3ccccc23)CC1` [Compound 350, 2-(2-(Dimethylamino)ethoxy)-5-methyl-N-(1-(naphthalen-1-yl)cyclopropyl)pyrimidine-4-carboxamide], the IC50 lay within 1000 to 5000 nM.

Turning to `CCNCCOc1ccc(C)c(C(=O)NC2(c3cccc4ccccc34)CC2)c1` [Compound 351, 5-(2-(Ethylamino)ethoxy)-2-methyl-N-(1-(naphthalen-1-yl)cyclopropyl)benzamide], the IC50 is under 100 nM.

As to `Cc1ccc(OCC(C)(C)N)cc1C(=O)NC1(c2cccc3ccccc23)CC1` [Compound 352, 5-(2-Amino-2-methylpropoxy)-2-methyl-N-(1-(naphthalen-1-yl)cyclopropyl)benzamide], the IC50 was under 100 nM.

As to `CN(C)CCOc1ccc(C2CC2)c(C(=O)NC2(c3cccc4ccccc34)CC2)c1` [Compound 353, 2-Cyclopropyl-5-(2-(dimethylamino)ethoxy)-N-(1-(naphthalen-1-yl)cyclopropyl)benzamide], the IC50 is over 5000 nM.

In the case of `Cc1ccc(OCCN(C)C)cc1C(=O)NC1(c2cn(C)c3ccccc23)CC1` [Compound 354, 5-(2-(Dimethylamino)ethoxy)-2-methyl-N-(1-(1-methyl-1H-indol-3-yl)cyclopropyl)benzamide], the IC50 lay in the range of 100 to 1000 nM.

Take `Cc1ccc(OCCN(C)C)cc1C(=O)NC1(c2cccc(-c3cccs3)c2)CC1` [Compound 355, 5-(2-(Dimethylamino)ethoxy)-2-methyl-N-(1-(3-(thiophen-2-yl)phenyl)cyclopropyl)benzamide]: the IC50 fell in the range of 100 to 1000 nM.

As for `Cc1ccc(OCCN(C)C)cc1C(=O)NC1(c2cccc3sccc23)CC1` [Compound 356, N-(1-(Benzo[b]thiophen-4-yl)cyclopropyl)-5-(2-(dimethylamino)ethoxy)-2-methylbenzamide], the IC50 is under 100 nM.

For the molecule `Cc1ccc(OCCN(C)C)cc1C(=O)NC1(c2cccc3occc23)CC1` [Compound 357, N-(1-(Benzofuran-4-yl)cyclopropyl)-5-(2-(dimethylamino)ethoxy)-2-methylbenzamide], the IC50 was in the range of 100 to 1000 nM.

Consider `COCCNCCOc1ccc(C)c(C(=O)NC2(c3cccc4ccccc34)CC2)c1` [Compound 358, 5-(2-((2-Methoxyethyl)amino)ethoxy)-2-methyl-N-(1-(naphthalen-1-yl)cyclopropyl)benzamide], for which the IC50 was under 100 nM.

Consider `Cc1ccc(OCCNCCO)cc1C(=O)NC1(c2cccc3ccccc23)CC1` [Compound 359, 5-(2-((2-Hydroxyethyl)amino)ethoxy)-2-methyl-N-(1-(naphthalen-1-yl)cyclopropyl)benzamide], for which the IC50 is under 100 nM.

As for `Cc1ccc(OCCNCc2ccccc2)cc1C(=O)NC1(c2cccc3ccccc23)CC1` [Compound 360, 5-(2-(Benzylamino)ethoxy)-2-methyl-N-(1-(naphthalen-1-yl)cyclopropyl)benzamide], the IC50 is under 100 nM.

With `Cc1ccc(OCCNCC2CC2)cc1C(=O)NC1(c2cccc3ccccc23)CC1` [Compound 361, 5-(2-((Cyclopropylmethyl)amino)ethoxy)-2-methyl-N-(1-(naphthalen-1-yl)cyclopropyl)benzamide], the half-maximal inhibitory concentration (IC50) was under 100 nM.

For `Cc1ccc(OCCNC(C)C)cc1C(=O)NC1(c2cccc3ccccc23)CC1` [Compound 362, 5-(2-(Isopropylamino)ethoxy)-2-methyl-N-(1-(naphthalen-1-yl)cyclopropyl)benzamide], the IC50 is under 100 nM.

For the molecule `COc1cc(C2(NC(=O)c3cc(OCCN)ccc3C)CC2)c2ccccc2c1` [Compound 363, 5-(2-Aminoethoxy)-N-(1-(3-methoxynaphthalen-1-yl)cyclopropyl)-2-methylbenzamide], the IC50 was under 100 nM.

For `CCc1ccccc1C1(NC(=O)c2cc(OCCN(C)C)ccc2C)CC1` [Compound 364, 5-(2-(Dimethylamino)ethoxy)-N-(1-(2-ethylphenyl)cyclopropyl)-2-methylbenzamide], the half-maximal inhibitory concentration (IC50) lay within 100 to 1000 nM.

Regarding `Cc1ccc(OCCN(C)C)cc1C(=O)NC1(c2cccc3ccc(F)cc23)CC1` [Compound 365, 5-(2-(Dimethylamino)ethoxy)-N-(1-(7-fluoronaphthalen-1-yl)cyclopropyl)-2-methylbenzamide], the IC50 was under 100 nM.

In the case of `Cc1cnc(OCCN(C)C)cc1C(=O)NC1(c2cccc3ccccc23)CC1` [Compound 366, 2-(2-(Dimethylamino)ethoxy)-5-methyl-N-(1-(naphthalen-1-yl)cyclopropyl) isonicotinamide], the IC50 fell in the range of 100 to 1000 nM.

As to `Cc1ccc(OCC(N)c2ccccc2)cc1C(=O)NC1(c2cccc3ccccc23)CC1` (centres unmarked) [Compound 367, 5-(2-Amino-2-phenylethoxy)-2-methyl-N-(1-(naphthalen-1-yl)cyclopropyl)benzamide], the IC50 was under 100 nM.

On to `Cc1ccc(OCCN(C)C)cc1C(=O)NC1(c2cccc3ccsc23)CC1` [Compound 368, N-(1-(Benzo[b]thiophen-7-yl)cyclopropyl)-5-(2-(dimethylamino)ethoxy)-2-methylbenzamide], for which the IC50 is 100 to 1000 nM.

With `Cc1cc(Br)c(OCCN(C)C)cc1C(=O)NC1(c2cccc3ccccc23)CC1` [Compound 369, 4-Bromo-5-(2-(dimethylamino)ethoxy)-2-methyl-N-(1-(naphthalen-1-yl)cyclopropyl)benzamide], the IC50 was under 100 nM.

As to `Cc1ccc(OCCN(C)C)cc1C(=O)NC1(c2cccc3ccoc23)CC1` [Compound 370, N-(1-(Benzofuran-7-yl)cyclopropyl)-5-(2-(dimethylamino)ethoxy)-2-methylbenzamide], the IC50 was 100 to 1000 nM.

As for `Cc1ccc(OC[C@H]2CCCN2)cc1C(=O)NC1(c2cccc3ncccc23)CC1` [Compound 371, (R)-2-methyl-5-(pyrrolidin-2-ylmethoxy)-N-(1-(quinolin-5-yl)cyclopropyl)benzamide], the IC50 is under 100 nM.

As to `COC(=O)/C=C/C(=O)NNC(=O)CCc1ccccc1C(=O)NC1(c2cccc3ccccc23)CC1` [Compound 373, (E)-Methyl 4-(2-(3-(2-((1-(naphthalen-1-yl)cyclopropyl)carbamoyl)phenyl)propanoyl) hydrazinyl)-4-oxobut-2-enoate], the 50% inhibitory concentration (IC50) was under 100 nM.

Consider `Cc1ccc(OCCN)cc1C(=O)NC1(c2cccc3ncccc23)CC1` [Compound 374, 5-(2-Aminoethoxy)-2-methyl-N-(1-(quinolin-5-yl)cyclopropyl)benzamide], for which the IC50 was under 100 nM.

With `CNCCOc1ccc(C)c(C(=O)NC2(c3cccc4cnccc34)CC2)c1` [Compound 375, N-(1-(Isoquinolin-5-yl)cyclopropyl)-2-methyl-5-(2-(methylamino)ethoxy)benzamide], the IC50 is under 100 nM.

On to `Cc1ccc(OCC23CCCN2CCC3)cc1C(=O)NC1(c2cccc3ccccc23)CC1` [Compound 376, 5-((Hexahydro-1H-pyrrolizin-7a-yl)methoxy)-2-methyl-N-(1-(naphthalen-1-yl)cyclopropyl)benzamide], for which the IC50 was under 100 nM.

Regarding `CNCCOc1ccc(C)c(C(=O)NC2(c3cccc4cc(F)ccc34)CC2)c1` [Compound 377, N-(1-(6-Fluoronaphthalen-1-yl)cyclopropyl)-2-methyl-5-(2-(methylamino)ethoxy)benzamide], the 50% inhibitory concentration (IC50) was under 100 nM.

For the molecule `Cc1ccc(CCN)cc1C(=O)NC1(c2cccc3ccccc23)CC1` [Compound 378, 5-(2-Aminoethyl)-2-methyl-N-(1-(naphthalen-1-yl)cyclopropyl)benzamide], the IC50 was under 100 nM.

In the case of `Cc1ccc(OC[C@@H]2CCCN2C)cc1C(=O)NC1(c2cccc3ncccc23)CC1` [Compound 379, (S)-2-Methyl-5-((1-methylpyrrolidin-2-yl)methoxy)-N-(1-(quinolin-5-yl)cyclopropyl)benzamide], the IC50 was under 100 nM.

For the origin of these results see US20250025443A1, “COMPOUNDS AND METHODS FOR TREATING CORONA VIRUSES” (CLEAR CREEK BIO, INC., priority 2021, published 2025).
